Results reported in the kinase profiling compilation of Christmann-Franck et al. (2016).

Tests used:
Assay in all cases: KINOMEscan competition binding
Settings in all cases: compound 10.0 µM
AAK1 (human) = AAK1 (human) (UniProt Q2M2I8)
ABL2 (human) = ABL2 (human) (UniProt P42684)
ACVR1 (human) = ACVR1 (human) (UniProt Q04771)
AXL (human) = AXL (human) (UniProt P30530)
CAMK1G (human) = CAMK1G (human) (UniProt Q96NX5)
CDC2L2 (human) = CDC2L2 (human) (UniProt Q9UQ88)
CDK9 (human) = CDK9 (human) (UniProt P50750)
CSNK1A1L (human) = CSNK1A1L (human) (UniProt Q8N752)
CSNK1G1 (human) = CSNK1G1 (human) (UniProt Q9HCP0)
EPHA5 (human) = EPHA5 (human) (UniProt P54756)
FGFR4 (human) = FGFR4 (human) (UniProt P22455)
[1] = system: FLT3 (human), P36888 [N841I]
GSK3A (human) = GSK3A (human) (UniProt P49840)
[2] = target: JAK1 JH1 catalytic (human) (UniProt P23458)
LATS1 (human) = LATS1 (human) (UniProt O95835)
LYN (human) = LYN (human) (UniProt P07948)
MAP2K2 (human) = MAP2K2 (human) (UniProt P36507)
MAP3K12 (human) = MAP3K12 (human) (UniProt Q12852)
MAP3K3 (human) = MAP3K3 (human) (UniProt Q99759)
MAP3K4 (human) = MAP3K4 (human) (UniProt Q9Y6R4)
MAP4K5 (human) = MAP4K5 (human) (UniProt Q9Y4K4)
MAPK11 (human) = MAPK11 (human) (UniProt Q15759)
MAPK8 (human) = MAPK8 (human) (UniProt P45983)
MST1R (human) = MST1R (human) (UniProt Q04912)
NUAK1 (human) = NUAK1 (human) (UniProt O60285)
PAK1 (human) = PAK1 (human) (UniProt Q13153)
PIK3C2B (human) = PIK3C2B (human) (UniProt O00750)
PIP4K2B (human) = PIP4K2B (human) (UniProt P78356)
PRKACA (human) = PRKACA (human) (UniProt P17612)
PRKX (human) = PRKX (human) (UniProt P51817)
RET (human) = RET (human) (UniProt P07949)
RPS6KA2 KD2 (human) = RPS6KA2 KD2 (human) (UniProt Q15349)
RPS6KA3 KD1 (human) = RPS6KA3 KD1 (human) (UniProt P51812)
SIK2 (human) = SIK2 (human) (UniProt Q9H0K1)
SRPK3 (human) = SRPK3 (human) (UniProt Q9UPE1)
STK32B (human) = STK32B (human) (UniProt Q9NY57)
TAOK1 (human) = TAOK1 (human) (UniProt Q7L7X3)
TNIK (human) = TNIK (human) (UniProt Q9UKE5)
TNNI3K (human) = TNNI3K (human) (UniProt Q59H18)
YES1 (human) = YES1 (human) (UniProt P07947)
Sequence of YES1 (human) (P07947 whole entry, looked up): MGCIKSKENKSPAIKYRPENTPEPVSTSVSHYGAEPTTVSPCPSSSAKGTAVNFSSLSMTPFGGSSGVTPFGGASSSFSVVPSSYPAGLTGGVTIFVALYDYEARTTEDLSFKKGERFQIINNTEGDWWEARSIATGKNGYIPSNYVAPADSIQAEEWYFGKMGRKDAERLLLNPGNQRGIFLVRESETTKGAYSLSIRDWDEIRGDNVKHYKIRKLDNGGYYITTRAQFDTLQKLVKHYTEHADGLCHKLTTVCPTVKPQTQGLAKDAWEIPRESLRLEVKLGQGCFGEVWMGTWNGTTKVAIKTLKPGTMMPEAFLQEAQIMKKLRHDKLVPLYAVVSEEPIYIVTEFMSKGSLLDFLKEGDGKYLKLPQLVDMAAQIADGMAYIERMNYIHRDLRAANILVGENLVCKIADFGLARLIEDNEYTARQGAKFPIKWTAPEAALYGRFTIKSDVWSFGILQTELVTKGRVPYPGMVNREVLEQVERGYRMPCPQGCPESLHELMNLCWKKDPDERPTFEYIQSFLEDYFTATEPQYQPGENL

Sequence of MAP3K12 (human) (Q12852 whole entry, looked up): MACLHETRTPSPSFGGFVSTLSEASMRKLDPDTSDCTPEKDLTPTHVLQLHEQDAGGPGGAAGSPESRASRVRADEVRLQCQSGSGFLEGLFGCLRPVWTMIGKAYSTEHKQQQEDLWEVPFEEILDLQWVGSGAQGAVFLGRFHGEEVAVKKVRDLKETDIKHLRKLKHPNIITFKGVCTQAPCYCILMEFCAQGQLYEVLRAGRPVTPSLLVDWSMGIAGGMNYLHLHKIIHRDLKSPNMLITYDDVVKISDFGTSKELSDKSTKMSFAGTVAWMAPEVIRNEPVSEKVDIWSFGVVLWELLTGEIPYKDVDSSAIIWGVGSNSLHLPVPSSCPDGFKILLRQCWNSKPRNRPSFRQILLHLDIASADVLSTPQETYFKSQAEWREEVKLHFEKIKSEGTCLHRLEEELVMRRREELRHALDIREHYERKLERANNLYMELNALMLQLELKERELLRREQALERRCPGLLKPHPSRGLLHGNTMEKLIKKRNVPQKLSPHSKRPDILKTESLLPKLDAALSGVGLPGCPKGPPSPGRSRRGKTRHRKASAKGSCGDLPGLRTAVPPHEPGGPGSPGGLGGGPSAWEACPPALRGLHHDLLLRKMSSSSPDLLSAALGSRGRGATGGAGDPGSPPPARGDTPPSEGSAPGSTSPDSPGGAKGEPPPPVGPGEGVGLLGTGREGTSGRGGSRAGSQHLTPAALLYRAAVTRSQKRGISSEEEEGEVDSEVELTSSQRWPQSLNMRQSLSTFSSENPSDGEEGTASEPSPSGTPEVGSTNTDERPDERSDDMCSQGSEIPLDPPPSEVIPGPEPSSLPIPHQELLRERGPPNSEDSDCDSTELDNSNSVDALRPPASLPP
Sequence of STK32B (human) (Q9NY57 whole entry, looked up): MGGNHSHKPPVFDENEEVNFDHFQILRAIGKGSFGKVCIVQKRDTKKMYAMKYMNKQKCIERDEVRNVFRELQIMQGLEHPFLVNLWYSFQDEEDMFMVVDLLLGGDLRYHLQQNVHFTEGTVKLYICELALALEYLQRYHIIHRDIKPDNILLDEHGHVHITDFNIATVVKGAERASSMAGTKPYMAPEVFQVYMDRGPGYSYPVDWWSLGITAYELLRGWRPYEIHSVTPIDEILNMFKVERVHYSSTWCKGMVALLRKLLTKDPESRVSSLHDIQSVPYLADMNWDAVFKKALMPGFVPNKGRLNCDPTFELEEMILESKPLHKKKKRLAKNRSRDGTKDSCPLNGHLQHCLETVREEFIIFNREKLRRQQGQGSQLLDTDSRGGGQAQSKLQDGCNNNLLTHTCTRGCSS
Sequence of JAK1 JH1 catalytic (human) (P23458 whole entry, looked up): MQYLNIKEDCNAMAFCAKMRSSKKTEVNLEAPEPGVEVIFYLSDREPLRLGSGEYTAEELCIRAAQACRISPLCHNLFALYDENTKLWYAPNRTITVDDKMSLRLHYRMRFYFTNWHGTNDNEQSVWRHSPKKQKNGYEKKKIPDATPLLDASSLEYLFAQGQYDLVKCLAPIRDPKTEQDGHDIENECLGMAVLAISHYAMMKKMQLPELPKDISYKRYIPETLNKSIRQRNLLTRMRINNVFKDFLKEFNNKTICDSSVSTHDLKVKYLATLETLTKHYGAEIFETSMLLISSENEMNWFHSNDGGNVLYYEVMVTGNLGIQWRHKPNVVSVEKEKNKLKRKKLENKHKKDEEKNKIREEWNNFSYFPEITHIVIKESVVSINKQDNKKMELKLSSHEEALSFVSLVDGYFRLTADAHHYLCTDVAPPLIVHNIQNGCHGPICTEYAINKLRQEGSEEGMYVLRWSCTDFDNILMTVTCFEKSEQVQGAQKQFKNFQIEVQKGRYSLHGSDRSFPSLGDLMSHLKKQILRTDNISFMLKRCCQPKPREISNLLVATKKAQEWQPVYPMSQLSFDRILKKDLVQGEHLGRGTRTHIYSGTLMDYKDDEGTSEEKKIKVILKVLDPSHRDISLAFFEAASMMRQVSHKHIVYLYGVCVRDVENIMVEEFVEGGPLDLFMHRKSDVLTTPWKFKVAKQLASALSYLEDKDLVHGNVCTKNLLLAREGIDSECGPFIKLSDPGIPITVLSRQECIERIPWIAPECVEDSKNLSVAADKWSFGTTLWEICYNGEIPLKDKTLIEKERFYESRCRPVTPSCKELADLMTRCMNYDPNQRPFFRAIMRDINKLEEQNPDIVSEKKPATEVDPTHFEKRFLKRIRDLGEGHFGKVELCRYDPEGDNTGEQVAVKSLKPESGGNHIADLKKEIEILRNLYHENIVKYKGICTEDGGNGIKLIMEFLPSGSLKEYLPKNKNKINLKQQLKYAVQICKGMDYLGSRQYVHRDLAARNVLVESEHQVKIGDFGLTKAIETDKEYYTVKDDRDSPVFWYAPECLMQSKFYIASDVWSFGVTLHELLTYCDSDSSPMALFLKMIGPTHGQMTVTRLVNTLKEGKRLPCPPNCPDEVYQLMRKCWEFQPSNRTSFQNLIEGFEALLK
Sequence of PAK1 (human) (Q13153 whole entry, looked up): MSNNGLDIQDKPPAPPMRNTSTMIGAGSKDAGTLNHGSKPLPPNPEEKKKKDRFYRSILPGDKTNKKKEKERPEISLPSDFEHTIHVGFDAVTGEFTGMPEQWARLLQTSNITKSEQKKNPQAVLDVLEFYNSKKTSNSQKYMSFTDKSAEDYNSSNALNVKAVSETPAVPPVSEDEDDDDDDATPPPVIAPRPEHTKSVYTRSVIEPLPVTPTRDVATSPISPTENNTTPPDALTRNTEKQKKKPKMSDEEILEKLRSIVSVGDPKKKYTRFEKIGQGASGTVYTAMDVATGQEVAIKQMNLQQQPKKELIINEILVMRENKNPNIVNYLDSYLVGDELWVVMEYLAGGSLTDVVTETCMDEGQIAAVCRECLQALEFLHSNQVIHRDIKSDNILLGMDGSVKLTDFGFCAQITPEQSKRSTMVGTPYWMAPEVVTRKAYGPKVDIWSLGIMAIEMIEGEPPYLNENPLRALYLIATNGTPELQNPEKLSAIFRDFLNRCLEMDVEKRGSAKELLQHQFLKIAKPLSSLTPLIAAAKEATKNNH
Sequence of RET (human) (P07949 whole entry, looked up): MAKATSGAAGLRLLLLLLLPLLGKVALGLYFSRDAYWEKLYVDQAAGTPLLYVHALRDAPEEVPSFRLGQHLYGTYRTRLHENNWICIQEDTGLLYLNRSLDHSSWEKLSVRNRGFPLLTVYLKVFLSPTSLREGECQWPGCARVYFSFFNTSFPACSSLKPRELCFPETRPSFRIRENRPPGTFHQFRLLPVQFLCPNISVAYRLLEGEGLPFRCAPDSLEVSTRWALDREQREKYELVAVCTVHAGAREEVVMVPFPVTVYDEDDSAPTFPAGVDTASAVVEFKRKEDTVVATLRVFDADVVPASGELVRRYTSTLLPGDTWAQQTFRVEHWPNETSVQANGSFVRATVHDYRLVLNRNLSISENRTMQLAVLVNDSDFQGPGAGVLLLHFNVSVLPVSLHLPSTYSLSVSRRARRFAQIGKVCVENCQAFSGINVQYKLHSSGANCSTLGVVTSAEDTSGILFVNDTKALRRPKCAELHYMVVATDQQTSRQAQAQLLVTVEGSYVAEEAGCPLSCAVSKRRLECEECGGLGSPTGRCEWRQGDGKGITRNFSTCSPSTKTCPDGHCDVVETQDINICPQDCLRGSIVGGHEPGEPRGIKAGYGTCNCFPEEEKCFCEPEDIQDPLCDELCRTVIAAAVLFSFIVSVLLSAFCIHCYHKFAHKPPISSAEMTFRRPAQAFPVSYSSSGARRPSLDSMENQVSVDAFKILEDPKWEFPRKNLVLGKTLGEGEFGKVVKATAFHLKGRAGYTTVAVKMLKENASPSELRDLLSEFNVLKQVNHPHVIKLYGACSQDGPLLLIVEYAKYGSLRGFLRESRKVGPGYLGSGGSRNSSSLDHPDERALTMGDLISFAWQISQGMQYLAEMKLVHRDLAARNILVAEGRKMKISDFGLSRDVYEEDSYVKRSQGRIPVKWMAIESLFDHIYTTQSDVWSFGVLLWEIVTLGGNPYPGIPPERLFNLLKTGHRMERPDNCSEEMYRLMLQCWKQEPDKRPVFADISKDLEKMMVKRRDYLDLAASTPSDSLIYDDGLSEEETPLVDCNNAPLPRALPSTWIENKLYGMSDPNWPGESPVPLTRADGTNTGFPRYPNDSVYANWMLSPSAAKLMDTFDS
Sequence of MAPK8 (human) (P45983 whole entry, looked up): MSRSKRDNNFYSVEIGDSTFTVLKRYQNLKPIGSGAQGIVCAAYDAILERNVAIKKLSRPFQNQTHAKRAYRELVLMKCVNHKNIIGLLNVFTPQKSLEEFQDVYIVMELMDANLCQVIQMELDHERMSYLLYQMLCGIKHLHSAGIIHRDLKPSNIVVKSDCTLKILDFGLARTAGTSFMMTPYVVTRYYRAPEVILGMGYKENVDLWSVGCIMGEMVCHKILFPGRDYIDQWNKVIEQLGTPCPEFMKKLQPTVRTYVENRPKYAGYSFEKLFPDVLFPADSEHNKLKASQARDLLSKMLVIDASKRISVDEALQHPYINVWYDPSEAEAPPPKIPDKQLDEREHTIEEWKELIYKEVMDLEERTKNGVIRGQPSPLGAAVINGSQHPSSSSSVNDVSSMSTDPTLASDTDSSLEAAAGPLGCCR

| SMILES | kinase still bound, per cent of control (AAK1 (human)) [%] | kinase still bound, per cent of control (ABL2 (human)) [%] | kinase still bound, per cent of control (ACVR1 (human)) [%] | kinase still bound, per cent of control (AXL (human)) [%] | kinase still bound, per cent of control (CAMK1G (human)) [%] | kinase still bound, per cent of control (CDC2L2 (human)) [%] | kinase still bound, per cent of control (CDK9 (human)) [%] | kinase still bound, per cent of control (CSNK1A1L (human)) [%] | kinase still bound, per cent of control (CSNK1G1 (human)) [%] | kinase still bound, per cent of control (EPHA5 (human)) [%] | kinase still bound, per cent of control (FGFR4 (human)) [%] | kinase still bound, per cent of control [1] [%] | kinase still bound, per cent of control (GSK3A (human)) [%] | kinase still bound, per cent of control [2] [%] | kinase still bound, per cent of control (LATS1 (human)) [%] | kinase still bound, per cent of control (LYN (human)) [%] | kinase still bound, per cent of control (MAP2K2 (human)) [%] | kinase still bound, per cent of control (MAP3K12 (human)) [%] | kinase still bound, per cent of control (MAP3K3 (human)) [%] | kinase still bound, per cent of control (MAP3K4 (human)) [%] | further results |
| --- | --- | --- | --- | --- | --- | --- | --- | --- | --- | --- | --- | --- | --- | --- | --- | --- | --- | --- | --- | --- | --- |
| Cc1ccc(C(=O)Nc2cccc(C(F)(F)F)c2)cc1Nc1cncc(C(N)=O)c1 | 100 | 21 | 100 | 100 | 100 | 100 | 100 | 100 | 100 | 1.1 | 100 | 100 | 100 | 100 | 100 | 9.4 | 100 | 100 | 100 | 100 | kinase still bound, per cent of control (MAP4K5 (human)): 100%; kinase still bound, per cent of control (MAPK11 (human)): 100%; kinase still bound, per cent of control (MAPK8 (human)): 100%; kinase still bound, per cent of control (MST1R (human)): 100%; kinase still bound, per cent of control (NUAK1 (human)): 100%; kinase still bound, per cent of control (PAK1 (human)): 100%; kinase still bound, per cent of control (PIK3C2B (human)): 100%; kinase still bound, per cent of control (PIP4K2B (human)): 100%; kinase still bound, per cent of control (PRKACA (human)): 100%; kinase still bound, per cent of control (PRKX (human)): 100%; kinase still bound, per cent of control (RET (human)): 100%; kinase still bound, per cent of control (RPS6KA2 KD2 (human)): 100%; kinase still bound, per cent of control (RPS6KA3 KD1 (human)): 100%; kinase still bound, per cent of control (SIK2 (human)): 100%; kinase still bound, per cent of control (SRPK3 (human)): 100%; kinase still bound, per cent of control (STK32B (human)): 100%; kinase still bound, per cent of control (TAOK1 (human)): 100%; kinase still bound, per cent of control (TNIK (human)): 100%; kinase still bound, per cent of control (TNNI3K (human)): 12%; kinase still bound, per cent of control (YES1 (human)): 100% |
| O=C(NC1CC1)c1cccc(-c2ccc3c(NC(=O)C4CC4)n[nH]c3c2)c1 | 10 | 100 | 48 | 54 | 75 | 85 | 93 | 100 | 85 | 95 | 94 | 33 | 84 | 100 | 61 | 83 | 82 | 30 | 85 | 93 | kinase still bound, per cent of control (MAP4K5 (human)): 24%; kinase still bound, per cent of control (MAPK11 (human)): 2.6%; kinase still bound, per cent of control (MAPK8 (human)): 40%; kinase still bound, per cent of control (MST1R (human)): 90%; kinase still bound, per cent of control (NUAK1 (human)): 100%; kinase still bound, per cent of control (PAK1 (human)): 70%; kinase still bound, per cent of control (PIK3C2B (human)): 83%; kinase still bound, per cent of control (PIP4K2B (human)): 5.6%; kinase still bound, per cent of control (PRKACA (human)): 100%; kinase still bound, per cent of control (PRKX (human)): 100%; kinase still bound, per cent of control (RET (human)): 86%; kinase still bound, per cent of control (RPS6KA2 KD2 (human)): 82%; kinase still bound, per cent of control (RPS6KA3 KD1 (human)): 86%; kinase still bound, per cent of control (SIK2 (human)): 91%; kinase still bound, per cent of control (SRPK3 (human)): 10%; kinase still bound, per cent of control (STK32B (human)): 100%; kinase still bound, per cent of control (TAOK1 (human)): 4.5%; kinase still bound, per cent of control (TNIK (human)): 25%; kinase still bound, per cent of control (TNNI3K (human)): 92%; kinase still bound, per cent of control (YES1 (human)): 92% |
| CN(C)C/C=C/C(=O)Nc1cccc(Nc2ncc3c(n2)N(C)c2ccccc2C(=O)N3C)c1 | 20 | 1.4 | 45 | 7 | 52 | 100 | 100 | 100 | 47 | 99 | 22 | 9.2 | 69 | 2.8 | 100 | 52 | 78 | 38 | 0.1 | 73 | kinase still bound, per cent of control (MAP4K5 (human)): 75%; kinase still bound, per cent of control (MAPK11 (human)): 89%; kinase still bound, per cent of control (MAPK8 (human)): 91%; kinase still bound, per cent of control (MST1R (human)): 93%; kinase still bound, per cent of control (NUAK1 (human)): 0.85%; kinase still bound, per cent of control (PAK1 (human)): 91%; kinase still bound, per cent of control (PIK3C2B (human)): 56%; kinase still bound, per cent of control (PIP4K2B (human)): 36%; kinase still bound, per cent of control (PRKACA (human)): 100%; kinase still bound, per cent of control (PRKX (human)): 100%; kinase still bound, per cent of control (RET (human)): 0.15%; kinase still bound, per cent of control (RPS6KA2 KD2 (human)): 21%; kinase still bound, per cent of control (RPS6KA3 KD1 (human)): 29%; kinase still bound, per cent of control (SIK2 (human)): 9%; kinase still bound, per cent of control (SRPK3 (human)): 63%; kinase still bound, per cent of control (STK32B (human)): 100%; kinase still bound, per cent of control (TAOK1 (human)): 0.15%; kinase still bound, per cent of control (TNIK (human)): 29%; kinase still bound, per cent of control (TNNI3K (human)): 28%; kinase still bound, per cent of control (YES1 (human)): 13% |
